From patent publication US20110098305A1, “ARYLSULFONAMIDE COMPOUNDS, COMPOSITIONS AND METHODS OF USE” (priority 2008, published 2011)

Biological target: T1, Bcl-XL (Homo sapiens, UniProt Q07817)
T1 construct: GST tagged Bcl-XL ΔC25 protein (0.6 nM Final concentration)
Experiment: Alphascreen competition assay, GST tagged Bcl-XL with biotinylated Bim BH3-26 peptide
Type: binding
Settings: GST tagged Bcl-XL ΔC25 protein 0.6 nM, biotinylated Bim BH3-26 peptide 5.0 nM, read-out: IC50 against Bcl-XL
Description: The following example describes the measurement of competition of compounds of the invention with Bim26-mer for a Bcl-2 homologue binding site.
Alphascreen (Amplified Luminescent Proximity Homogenous Assay) is a bead based technology which measures the interaction between molecules. The assay consists of two hydrogel coated beads which, when brought into close proximity by a binding interaction, results in the transfer of singlet oxygen from a donor bead to an acceptor bead.
Upon binding and excitation with laser light at 680 nm, a photosensitizer in the donor bead converts ambient oxygen to a more excited singlet state. This singlet oxygen then diffuses and reacts with a chemiluminescer in the acceptor bead. Fluorophores within the same bead are activated and result in the emission of light at 580-620 nm.
Screening of the compounds of the invention is performed using the Alphascreen GST (glutathione s-transferase) detection kit system. […] To this reaction mix, anti-GST coated acceptor beads and Streptavidin coated donor beads, both at 15 μg/ml Final concentration, are added and the assay mixture is incubated for 4 hours at room temperature before reading. […]
Assay buffer contains 50 mM Hepes pH 7.4, 10 mM DTT, 100 mM NaCl, 0.05% Tween and 0.1 mg/ml casein. […] Assays are performed in 384 well white Optiplates and is analyzed on the PerkinElmer Fusion alpha plate reader (Ex680, Em520-620 […]). […]

T1 sequence (Q07817 1-208 limits assumed, species assumed): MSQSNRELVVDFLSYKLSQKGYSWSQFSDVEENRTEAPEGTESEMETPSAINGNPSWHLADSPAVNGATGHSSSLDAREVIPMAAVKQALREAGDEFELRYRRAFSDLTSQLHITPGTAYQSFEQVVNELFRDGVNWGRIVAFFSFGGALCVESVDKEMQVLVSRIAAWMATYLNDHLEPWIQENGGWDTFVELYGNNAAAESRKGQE

IC50: 3 µM
SMILES: O=[N+]([O-])c1cc(S(=O)(=O)Nc2ncnc3cc(-c4ccc(F)cc4)ccc23)ccc1NCCSc1ccccc1 [compound c, N-(7-(4-fluorophenyl)quinazolin-4-yl)-3-nitro-4-(2-(phenylthio)ethylamino)benzenesulfonamide]
